According to US4439426A, “Semisynthetic macrolidic antibiotics, intermediate compounds for their preparation and related pharmaceutical compositions containing them” (priority 1981, dated 1984):
In brackets after ≈: the same amount, converted by molar mass.

Legend:
[1] = Stability in acidic environment at 25° C. (half-life of initial microbiological activity); format: physicochemical; details: aqueous solution
Protocol: Stability in acidic environnment at 25° C. of the novel
Note: t 1/2 represents the time for reducing to one half the initial powe
of the antibiotic determined by microbiological method through diffusion
on a plate using the test stock Microccocus luteus (Sarcina lutea) ATCC

[2] = test system: Acholeplasma laidlawii ATCC 23206 LRP 204; assay: Bacteriostatic power in solid medium (MIC); format: cell-based; details: Acholeplasma laidlawii, ATCC23206, read-out: Minimum inhibiting concentration
Text: (§1) the bacteriostatic power, expressed as the minimum inhibiting concentration (MIC) against both aerobic and anaerobic, Gram positive and Gram negative, bacterial stocks: the related results are reported in the tables 2 and 3.

[3] = test system: Bacillus subtilis LRP 25; assay: Bacteriostatic power in solid medium (MIC); format: cell-based; details: Bacillus subtilis, LRP25, read-out: Minimum inhibiting concentration
Text: as §1

[4] = test system: Bacteroides fragilis ATCC 23745 LRP 205; assay: Bacteriostatic power in solid medium (MIC); format: cell-based; details: Bacteroides fragilis, ATCC23745, read-out: Minimum inhibiting concentration
Text: as §1

[5] = test system: Corynebacterium diphteriae LRP 24; assay: Bacteriostatic power in solid medium (MIC); format: cell-based; details: Corynebacterium, LRP24, read-out: Minimum inhibiting concentration
Text: as §1

[6] = test system: Escherichia coli LRP 50; assay: Bacteriostatic power in solid medium (MIC); format: cell-based; details: Escherichia coli, LRP50, read-out: Minimum inhibiting concentration
Text: as §1

[7] = test system: Fusobacteriumnecrophroum ATCC 27852 LRP 210; assay: Bacteriostatic power in solid medium (MIC); format: cell-based; details: read-out: Minimum inhibiting concentration
Text: as §1

[8] = test system: Haemophilus influenzae ATCC 19418 LRP 213; assay: Bacteriostatic power in solid medium (MIC); format: cell-based; details: Haemophilus influenzae, ATCC19418, read-out: Minimum inhibiting concentration
Text: as §1

[9] = test system: Klelsiella pneumoniae LRP 54; assay: Bacteriostatic power in solid medium (MIC); format: cell-based; details: read-out: Minimum inhibiting concentration
Text: as §1

[10] = test system: Micrococcus luteus ATCC 15957 LRP 193; assay: Bacteriostatic power in solid medium (MIC); format: cell-based; details: Micrococcus luteus, ATCC15957, read-out: Minimum inhibiting concentration
Text: as §1

[11] = test system: Micrococcus luteus ATCC 9341 LRP 6; assay: Bacteriostatic power in solid medium (MIC); format: cell-based; details: Micrococcus luteus, ATCC9341, read-out: Minimum inhibiting concentration
Text: as §1

[12] = test system: Mycoplasma hominis I ATCC 14027 LRP 211; assay: Bacteriostatic power in solid medium (MIC); format: cell-based; details: Metamycoplasma hominis, ATCC14027, read-out: Minimum inhibiting concentration
Text: as §1

[13] = test system: Neisseria gonorrhoeae ATCC 19424 LRP 214; assay: Bacteriostatic power in solid medium (MIC); format: cell-based; details: Neisseria gonorrhoeae, ATCC19424, read-out: Minimum inhibiting concentration
Text: as §1

[14] = test system: Proteus vulgaris ATCC 6380 LRP 13; assay: Bacteriostatic power in solid medium (MIC); format: cell-based; details: Proteus vulgaris, ATCC6380, read-out: Minimum inhibiting concentration
Text: as §1

[15] = test system: Pseudomonas aeruginosa LRP 9; assay: Bacteriostatic power in solid medium (MIC); format: cell-based; details: Pseudomonas aeruginosa, LRP9, read-out: Minimum inhibiting concentration
Text: as §1

[16] = test system: Shigella sonnei LRP 5; assay: Bacteriostatic power in solid medium (MIC); format: cell-based; details: LRP5, read-out: Minimum inhibiting concentration
Text: as §1

[17] = test system: Staphylococcus aureus ATCC 14154 LRP 78; assay: Bacteriostatic power in solid medium (MIC); format: cell-based; details: Staphylococcus aureus, ATCC14154, read-out: Minimum inhibiting concentration
Text: as §1

[18] = test system: Staphylococcus aureus ATCC 6538P LRP 14; assay: Bacteriostatic power in solid medium (MIC); format: cell-based; details: Staphylococcus aureus, ATCC6538P, read-out: Minimum inhibiting concentration
Text: as §1

[19] = test system: Staphylococcus aureus ATCC 6538P LRP 39; assay: Bacteriostatic power in solid medium (MIC); format: cell-based; details: Staphylococcus aureus, ATCC6538P, read-out: Minimum inhibiting concentration
Text: as §1

[20] = test system: Streptococcus faecalis LRP 7; assay: Bacteriostatic power in solid medium (MIC); format: cell-based; details: Enterococcus faecalis, LRP7, read-out: Minimum inhibiting concentration
Text: as §1

[21] = test system: Streptococcus faecalis subsp. zymogenes ATCC 12958 LRP 61; assay: Bacteriostatic power in solid medium (MIC); format: cell-based; details: Enterococcus faecalis, ATCC12958, read-out: Minimum inhibiting concentration
Text: as §1

[22] = test system: Streptococcus pneumoniae ATCC 6303 LRP 35; assay: Bacteriostatic power in solid medium (MIC); format: cell-based; details: Streptococcus pneumoniae, ATCC6303, read-out: Minimum inhibiting concentration
Text: as §1

[23] = test system: Streptococcus pneumoniae ATCC 6303 LRP 52; assay: Bacteriostatic power in solid medium (MIC); format: cell-based; details: Streptococcus pneumoniae, ATCC6303, read-out: Minimum inhibiting concentration
Text: as §1

[24] = test system: Streptococcus pneumoniae ATCC 6303 LRP 53; assay: Bacteriostatic power in solid medium (MIC); format: cell-based; details: Streptococcus pneumoniae, ATCC6303, read-out: Minimum inhibiting concentration
Text: as §1

[25] = test system: Streptococcus pyogenes ATCC 8668 LRP 197; assay: Bacteriostatic power in solid medium (MIC); format: cell-based; details: Streptococcus pyogenes, ATCC8668, read-out: Minimum inhibiting concentration
Text: as §1

[26] = test system: Streptococcus pyogenes ATCC 8668 LRP 34; assay: Bacteriostatic power in solid medium (MIC); format: cell-based; details: Streptococcus pyogenes, ATCC8668, read-out: Minimum inhibiting concentration
Text: as §1

[27] = test system: Clostridium perfrigens ATCC 3624 LRP 206; assay: microbe, parasite or virus in culture; format: cell-based; details: ATCC3624, solid medium, anaerobic, read-out: Minimum inhibiting concentration
Text: as §1

[28] = test system: Salmonella typhy LRP 8; assay: microbe, parasite or virus in culture; format: cell-based; details: LRP8, solid medium, read-out: Minimum inhibiting concentration
Text: as §1

[29] = test system: Corynebacterium diphteriae LRP 24; assay: Bacteriostatic power in liquid medium (MIC); format: cell-based; details: Corynebacterium, LRP24, read-out: Minimum inhibiting concentration
Text: as §1

[30] = test system: Staphylococcus aureus ATCC 6538 P LRP 39; assay: Bacteriostatic power in liquid medium (MIC); format: cell-based; details: Staphylococcus aureus, ATCC6538, read-out: Minimum inhibiting concentration
Text: as §1

[31] = test system: Streptococcus faecalis subs. zymogenes ATCC 12958 LRP 61; assay: Bacteriostatic power in liquid medium (MIC); format: cell-based; details: Enterococcus faecalis, ATCC12958, read-out: Minimum inhibiting concentration
Text: as §1

[32] = test system: Streptococcus pneumoniae ATCC 6303 LRP 35; assay: Bacteriostatic power in liquid medium (MIC); format: cell-based; details: Streptococcus pneumoniae, ATCC6303, read-out: Minimum inhibiting concentration
Text: as §1

[33] = test system: Streptococcus pyogenes ATCC 8668 LRP 34; assay: Bacteriostatic power in liquid medium (MIC); format: cell-based; details: Streptococcus pyogenes, ATCC8668, read-out: Minimum inhibiting concentration
Text: as §1

[34] = test system: Corynebacterium diphteriae LRP 24; assay: Minimum bactericidal concentration (MBC); format: cell-based
Text: (§2) the bacterial power, expressed as the minimum bactericidal power (MBC) against some Gram positive aerobic stocks (table 5).

[35] = test system: Staphylococcus aureus ATCC 6538 P LRP 39; assay: Minimum bactericidal concentration (MBC); format: cell-based
Text: as §2

[36] = test system: Streptococcus faecalis subs. zymogenes LRP 61; assay: Minimum bactericidal concentration (MBC); format: cell-based
Text: as §2

[37] = test system: Streptococcus pneumoniae ATCC 6303 LRP 35; assay: Minimum bactericidal concentration (MBC); format: cell-based
Text: as §2

[38] = test system: Streptococcus pyogenes ATCC 8668 LRP 34; assay: Minimum bactericidal concentration (MBC); format: cell-based
Text: as §2

CC[C@H]1OC(=O)[C@H](C)[C@@H](O[C@H]2C[C@H](OC)[C@@H](O)[C@H](C)O2)[C@H](C)[C@@H](O[C@@H]2O[C@H](C)C[C@H](N(C)C)[C@H]2O)[C@](C)(O)C[C@](C)(F)C(=O)[C@H](C)[C@@H](O)[C@H]1C [P-80204, 3-O-oleandrosyl-5-O-desosaminyl-(8S)-8-fluoroerythronolide B]
half-life ([1]; pH 2): 25 h
half-life ([1]; pH 3): 100 h
MIC [2]: 3.12 µg/mL (≈ 4.32 µM)
MIC [3]: 0.195 µg/mL (≈ 0.27 µM)
MIC [4]: 3.12 µg/mL (≈ 4.32 µM)
MIC [5]: 0.049 µg/mL (≈ 0.0679 µM)
MIC [6]: 25 µg/mL (≈ 34.6 µM)
MIC [7]: 12.5 µg/mL (≈ 17.3 µM)
MIC [8]: 6.25 µg/mL (≈ 8.66 µM)
MIC [9]: 25 µg/mL (≈ 34.6 µM)
MIC [10]: 25 µg/mL (≈ 34.6 µM)
MIC [11]: 0.049 µg/mL (≈ 0.0679 µM)
MIC [12]: 25 µg/mL (≈ 34.6 µM)
MIC [13]: 0.39 µg/mL (≈ 0.54 µM)
MIC [14]: 25 µg/mL (≈ 34.6 µM)
MIC [15]: 25 µg/mL (≈ 34.6 µM)
MIC [16]: 25 µg/mL (≈ 34.6 µM)
MIC [17]: 25 µg/mL (≈ 34.6 µM)
MIC [18]: 0.39 µg/mL (≈ 0.54 µM)
MIC [19]: 0.39 µg/mL (≈ 0.54 µM)
MIC [20]: 0.39 µg/mL (≈ 0.54 µM)
MIC [21]: 0.39 µg/mL (≈ 0.54 µM)
MIC [22]: 0.049 µg/mL (≈ 0.0679 µM)
MIC [23]: 0.049 µg/mL (≈ 0.0679 µM)
MIC [24]: 0.049 µg/mL (≈ 0.0679 µM)
MIC [25]: 0.049 µg/mL (≈ 0.0679 µM)
MIC [26]: 0.049 µg/mL (≈ 0.0679 µM)
MIC [27]: 1.56 µg/mL (≈ 2.16 µM)
MIC [28]: 25 µg/mL (≈ 34.6 µM)
MIC [29]: 0.024 µg/mL (≈ 0.0332 µM)
MIC [30]: 0.195 µg/mL (≈ 0.27 µM)
MIC [31]: 0.39 µg/mL (≈ 0.54 µM)
MIC [32]: 0.024 µg/mL (≈ 0.0332 µM)
MIC [33]: 0.049 µg/mL (≈ 0.0679 µM)
MBC/MIC [34]: 16
MBC ([34]; Corynebacterium, LRP24, read-out: Minimum bactericidal concentration (MBC)): 0.39 µg/mL (≈ 0.54 µM)
MBC/MIC [35]: 16
MBC ([35]; Staphylococcus aureus, ATCC6538, read-out: Minimum bactericidal concentration (MBC)): 3.12 µg/mL (≈ 4.32 µM)
MBC/MIC [36]: 16
MBC ([36]; Enterococcus faecalis, read-out: Minimum bactericidal concentration (MBC)): 6.25 µg/mL (≈ 8.66 µM)
MBC/MIC [37]: 2
MBC ([37]; Streptococcus pneumoniae, ATCC6303, read-out: Minimum bactericidal concentration (MBC)): 0.049 µg/mL (≈ 0.0679 µM)
MBC/MIC [38]: 8
MBC ([38]; Streptococcus pyogenes, ATCC8668, read-out: Minimum bactericidal concentration (MBC)): 0.39 µg/mL (≈ 0.54 µM)
